Some test systems named below: HCC 2998; HCT-15; EKVX; SF-539; OVCAR-3; SNB-75; COLO 205; K562; SK-MEL-5; NCI-H23; A549; ACHN; NCI-H522; SF-295; IGROV-1; OVCAR-8; MDA-N; OVCAR-5; PC-3; LOX IMVI.
Holding throughout (test): NCI anticancer screen, dose series, 48 h

Molecules are shown by their SMILES.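 Cultured in 96-well plates, cells were exposed to test compound for 48 hours across five concentrations. Abbreviation: GI50, concentration required for 50% inhibition of growth.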 The source made the active and inactive calls. Rule as the data show it: active = GI50 up to about 1.1 µM and inactive = higher.

On to `COc1ccc(/C=C2\c3cc(OC)c(OC)cc3CCN2C(=O)c2ccccc2)cc1OC`, for which the GI50 in the experiment on HCC 2998 was 44.6 µM (inactive); in the experiment with HCT-15 it was 42.4 µM; with EKVX, 4.09 µM (inactive); in the experiment with SF-539, 46.7 µM (inactive); in the experiment on OVCAR-3, 35.7 µM (inactive); with SNB-75, 32 µM (inactive). Further, the GI50 with COLO 205 is 23.9 µM (inactive); in the experiment on K562 it was 32.1 µM (inactive); with SK-MEL-5, 18.5 µM (inactive); with NCI-H23, 87.5 µM (inactive); in the experiment with A549 it was 37.8 µM (inactive); in the experiment on ACHN, 53.5 µM (inactive). Also, the GI50 with NCI-H522 was 20.3 µM (inactive); with SF-295 it was 61.4 µM (inactive); in the experiment with IGROV-1 it was > 100 µM (inactive); with OVCAR-8, 27.5 µM (inactive); in the experiment with MDA-N, 25 µM (inactive); in the experiment with OVCAR-5, 55 µM (inactive). Further, the GI50 is 46.5 µM (inactive) in the experiment with PC-3 and 41.6 µM (inactive) in the experiment on LOX IMVI.
Turning to `O=C1Oc2ccccc2C(=O)/C1=C/N1C(=O)/C(=C/c2ccc3c(c2)OCO3)SC1=S`, the GI50 is 17.3 µM (inactive) in the experiment on HCC 2998; 15.8 µM in the experiment on HCT-15; 28.5 µM (inactive) in the experiment on EKVX; 11.5 µM (inactive) in the experiment with SF-539; 0.405 µM (active) in the experiment with OVCAR-3; 11.1 µM (inactive) in the experiment on SNB-75. Besides, the GI50 in the experiment with COLO 205 is 20.5 µM (inactive); in the experiment on K562, 16.6 µM (inactive); in the experiment on SK-MEL-5, 15.7 µM (inactive); in the experiment on NCI-H23, 11.8 µM (inactive); in the experiment on A549 it was 18.1 µM (inactive); with ACHN, 11.8 µM (inactive). Also, the GI50 in the experiment on NCI-H522 is 15.8 µM (inactive); in the experiment on SF-295 it was 22.9 µM (inactive); with IGROV-1, 13.6 µM (inactive); in the experiment on OVCAR-8 it was 17.6 µM (inactive); with MDA-N it was 24.9 µM (inactive); in the experiment on OVCAR-5, 16.6 µM (inactive). Besides, the GI50 in the experiment on PC-3 is 15.8 µM (inactive); with LOX IMVI, 33.3 µM (inactive).
As for `Brc1ccc2[nH]cc(-c3csc(-c4c[nH]c5ccccc45)n3)c2c1`, the GI50 in the experiment with HCC 2998 is 2.08 µM (inactive); in the experiment on HCT-15, 2.33 µM; in the experiment on EKVX it was 2.69 µM (inactive); with SF-539 it was 4.72 µM (inactive); in the experiment with OVCAR-3 it was 3.01 µM (inactive); with SNB-75 it was 10.1 µM (inactive). Moreover, the GI50 in the experiment on COLO 205 is 2.08 µM (inactive); with K562 it was 3.03 µM (inactive); in the experiment on SK-MEL-5, 2.24 µM (inactive); in the experiment on NCI-H23, 2.39 µM (inactive); in the experiment with A549, 3.67 µM (inactive); in the experiment on ACHN it was 5.5 µM (inactive). Further, the GI50 is 1.81 µM (inactive) in the experiment on NCI-H522; 2.42 µM (inactive) with SF-295; 2.2 µM (inactive) in the experiment with IGROV-1; 4.9 µM (inactive) with OVCAR-8; 2.88 µM (inactive) with MDA-N; 2.02 µM (inactive) in the experiment on OVCAR-5. The values for the GI50 with PC-3 and in the experiment on LOX IMVI were 3.54 µM (inactive) and 2.1 µM (inactive), respectively.
Take `COc1ccccc1/C=C1\CCC(CN2CCOCC2)C1=O` (stereo not given): the GI50 with HCC 2998 is 14.9 µM (inactive); with HCT-15, 4.24 µM; with EKVX, 11.2 µM (inactive); in the experiment on SF-539 it was 15.2 µM (inactive); with OVCAR-3, 5.57 µM (inactive); with SNB-75, 20.2 µM (inactive). Moreover, the GI50 in the experiment on COLO 205 was 4.47 µM (inactive); in the experiment with K562 it was 2.81 µM (inactive); with SK-MEL-5 it was 15 µM (inactive); with NCI-H23, 20.3 µM (inactive); in the experiment with A549, 21.9 µM (inactive); in the experiment on ACHN, 16.1 µM (inactive). Besides, the GI50 with NCI-H522 is 1.77 µM (inactive); in the experiment with SF-295, 19.2 µM (inactive); in the experiment with IGROV-1 it was 12.5 µM (inactive); with OVCAR-8, 5.43 µM (inactive); with MDA-N, 13.8 µM (inactive); in the experiment on OVCAR-5, 18.4 µM (inactive). Moreover, the GI50 was 15.2 µM (inactive) in the experiment with PC-3 and 6.52 µM (inactive) in the experiment with LOX IMVI.
Take `Cc1ccc(/N=N\c2c(O)ccc3cc(S(=O)(=O)O)ccc23)cc1`: the GI50 in the experiment on HCC 2998 is > 100 µM (inactive); in the experiment on HCT-15, > 100 µM; in the experiment with EKVX, > 100 µM (inactive); with SF-539, > 100 µM (inactive); in the experiment on OVCAR-3 it was > 100 µM (inactive); in the experiment with SNB-75, > 100 µM (inactive). For the same molecule, the GI50 in the experiment with COLO 205, in the experiment on K562, in the experiment on SK-MEL-5, in the experiment on NCI-H23, in the experiment on A549 and in the experiment on ACHN was > 100 µM (inactive) in each case. Moreover, the GI50 in the experiment on NCI-H522 is > 100 µM (inactive); in the experiment with SF-295, > 100 µM (inactive); in the experiment with IGROV-1, > 80.2 µM (inactive); in the experiment with OVCAR-8, > 100 µM (inactive); in the experiment with MDA-N, > 100 µM (inactive); in the experiment with OVCAR-5, > 100 µM (inactive). The GI50 in the experiment with PC-3 and in the experiment with LOX IMVI was > 100 µM (inactive) each time.
Take `O=C1NC(c2ccccc2Cl)Nc2ccccc21` (stereo not given): the GI50 is 11.3 µM (inactive) in the experiment with HCC 2998; 3.9 µM with HCT-15; 27.7 µM (inactive) with EKVX; 7.08 µM (inactive) in the experiment on SF-539; 7.38 µM (inactive) in the experiment on OVCAR-3; 13.8 µM (inactive) with SNB-75. Moreover, the GI50 in the experiment on COLO 205 was 8.49 µM (inactive); in the experiment on K562 it was 3.77 µM (inactive); in the experiment with SK-MEL-5 it was 5.57 µM (inactive); in the experiment with NCI-H23, 34.2 µM (inactive); in the experiment on A549, 32.5 µM (inactive); in the experiment on ACHN, 29.5 µM (inactive). Also, the GI50 with NCI-H522 was 12.3 µM (inactive); in the experiment on SF-295, 13.9 µM (inactive); in the experiment on IGROV-1, 22.5 µM (inactive); in the experiment with OVCAR-8, 38.6 µM (inactive); in the experiment on MDA-N, 1.47 µM (inactive); in the experiment with OVCAR-5, > 100 µM (inactive). The values for the GI50 with PC-3 and in the experiment on LOX IMVI were 21.4 µM (inactive) and 12.5 µM (inactive), respectively.
For `OC(NN=C1CCCC1)(C(F)(F)Cl)C(F)(F)Cl`, the GI50 in the experiment with HCC 2998 was > 10 µM (inactive); with HCT-15, > 10 µM; with EKVX, > 10 µM (inactive); with SF-539, > 10 µM (inactive); in the experiment with OVCAR-3, > 10 µM (inactive); in the experiment with SNB-75, > 10 µM (inactive). The GI50 in the experiment on COLO 205, in the experiment on K562, in the experiment on SK-MEL-5, in the experiment on NCI-H23, in the experiment on A549 and in the experiment on ACHN was > 10 µM (inactive) each time. The GI50 with NCI-H522, with SF-295, in the experiment on IGROV-1, in the experiment with OVCAR-8, in the experiment with MDA-N and in the experiment on OVCAR-5 was > 10 µM (inactive) in each case. Further, the GI50 with PC-3 and in the experiment on LOX IMVI was > 10 µM (inactive) each time.
Take `O=C(CCCl)NN=C1NCCCCN1`: the GI50 in the experiment with HCC 2998 is > 100 µM (inactive); in the experiment with HCT-15 it was > 100 µM; with EKVX, > 100 µM (inactive); in the experiment with SF-539, > 100 µM (inactive); in the experiment on OVCAR-3, > 100 µM (inactive); in the experiment with SNB-75 it was > 100 µM (inactive). Further, the GI50 in the experiment on COLO 205, in the experiment on K562, in the experiment on SK-MEL-5, with NCI-H23, in the experiment with A549 and in the experiment on ACHN was > 100 µM (inactive) in each case. The GI50 in the experiment on NCI-H522, in the experiment on SF-295, in the experiment with IGROV-1, with OVCAR-8, with MDA-N and with OVCAR-5 was > 100 µM (inactive) each time. Moreover, the GI50 in the experiment on PC-3 and in the experiment on LOX IMVI was > 100 µM (inactive) throughout.
`COC(=O)C1=CC(=O)OC1(OO)c1ccccc1` (stereo not given): the GI50 in the experiment with HCC 2998 is > 100 µM (inactive); in the experiment with HCT-15, 54 µM; with EKVX, > 100 µM (inactive); in the experiment on SF-539, > 100 µM (inactive); with OVCAR-3 it was > 100 µM (inactive); in the experiment with SNB-75, 92.3 µM (inactive). Also, the GI50 was > 100 µM (inactive) with COLO 205; 33.5 µM (inactive) in the experiment with K562; > 100 µM (inactive) with SK-MEL-5; > 100 µM (inactive) with NCI-H23; > 100 µM (inactive) with A549; > 100 µM (inactive) in the experiment on ACHN. The GI50 in the experiment with NCI-H522 was 30.3 µM (inactive); in the experiment with SF-295, > 100 µM (inactive); in the experiment with IGROV-1 it was > 100 µM (inactive); in the experiment on OVCAR-8 it was > 100 µM (inactive); in the experiment on MDA-N, > 100 µM (inactive); in the experiment with OVCAR-5, > 100 µM (inactive). Besides, the GI50 with PC-3 is > 100 µM (inactive); in the experiment on LOX IMVI it was 94.8 µM (inactive).
On to `COc1cccc2cc(C(=O)Nc3ccccn3)c(=N)oc12`, for which the GI50 was > 100 µM (inactive) with HCC 2998; > 100 µM in the experiment on HCT-15; > 100 µM (inactive) with EKVX; > 100 µM (inactive) in the experiment on SF-539; 23.7 µM (inactive) in the experiment on OVCAR-3; 59.2 µM (inactive) in the experiment on SNB-75. Further, the GI50 was > 100 µM (inactive) with COLO 205; 39.4 µM (inactive) with K562; > 100 µM (inactive) with SK-MEL-5; 52.5 µM (inactive) in the experiment on NCI-H23; > 100 µM (inactive) in the experiment on A549; 60.3 µM (inactive) in the experiment on ACHN. Also, the GI50 is 46.5 µM (inactive) with NCI-H522; > 100 µM (inactive) in the experiment on SF-295; > 100 µM (inactive) in the experiment on IGROV-1; > 100 µM (inactive) with OVCAR-8; 82.2 µM (inactive) with MDA-N; > 100 µM (inactive) in the experiment on OVCAR-5. For the same molecule, the GI50 in the experiment with PC-3 and with LOX IMVI was > 100 µM (inactive) throughout.

Values taken from ChEMBL document CHEMBL1201862, “PubChem BioAssay data set” (2004).
